Where two headings read alike, the source gives them in different places.
Experiments:
Salmonella typhimurium [1] = assay: Example 2: effect of carbon chain length of individual organic acids on antimicrobial activity in water; assay type: cell-based; design: MIC at 4 HR / MIC at 24 FIR: unit not given here; conditions: for MIC at 4 HR / MIC at 24 FIR: Minimum Inhibitory Concentration of Organic Acids against Salmonella, by linear regression; for MIC at 24 FIR: 24 hours; for killing at 0.05 % / killing at 0.075 % / killing at 0.1 % / killing at […]: Salmonella enterica, TYPHIMURIUM
Protocol: 100 ul of a nutrient broth culture of Salmonella typhimurium was added to each dilution tube. After addition, tubes were vortexed and allowed to stand. At 4 and 24 hours after addition of the inoculum, 100 ul of the solution was plated on agar (triplicate plates). Plates were incubated at 37° C. for 24 hours prior to enumeration. The minimum effective dose of each acid was be determined by linear regression: […]

Salmonella typhimurium [2] = assay: Example 1: effect of pH buffering of acetic and propionic acid on antimicrobial activity in water; assay type: cell-based
Protocol: Propionic and acetic acids were buffered with ammonium hydroxide to pHs ranging from 1 to 7. Acid contents of the buffered solutions were determined by a weight to weight ratio calculation to obtain the same acid content in the test solutions. […] The pHs of the deionized water solutions were recorded and any problems with solubility noted.
100 ul of a nutrient broth culture of Salmonella typhimurium was added to each dilution tube. After addition, tubes were vortexed and allowed to stand. At 4 and 24 hours after addition of the inoculum, 100 ul of the solution was plated on Standard Plate agar (triplicate plates). Plates were incubated at 37° C. for 24 hours prior to enumeration. The minimum effective dose of each acid was determined by linear regression.

[3] = Product Conc. 0.025 (% acid solution in water), 4 hr
[4] = Product Conc. 0.025 (% acid solution in water), 24 hr
[5] = Product Conc. 0.05 (% acid solution in water), 4 hr
[6] = Product Conc. 0.05 (% acid solution in water), 24 hr
[7] = Product Conc. 0.075 (% acid solution in water), 4 hr
[8] = Product Conc. 0.075 (% acid solution in water), 24 hr
[9] = Product Conc. 0.1 (% acid solution in water), 4 hr
[10] = Product Conc. 0.1 (% acid solution in water), 24 hr
[11] = 4 h, read-out: Salmonella at time Interval 4 hr % reduction
[12] = 24 h, read-out: Salmonella at time Interval 24 hr % reduction
[13] = Product Conc. 0.025 (% acid solution in water), 4 hr, read-out: Salmonella at time Interval 4 hr % reduction
[14] = Product Conc. 0.025 (% acid solution in water), 24 hr, read-out: Salmonella at time Interval 24 hr % reduction
[15] = Product Conc. 0.05 (% acid solution in water), 4 hr, read-out: Salmonella at time Interval 4 hr % reduction
[16] = Product Conc. 0.05 (% acid solution in water), 24 hr, read-out: Salmonella at time Interval 24 hr % reduction
[17] = Product Conc. 0.075 (% acid solution in water), 4 hr, read-out: Salmonella at time Interval 4 hr % reduction
[18] = Product Conc. 0.075 (% acid solution in water), 24 hr, read-out: Salmonella at time Interval 24 hr % reduction
[19] = Product Conc. 0.1 (% acid solution in water), 4 hr, read-out: Salmonella at time Interval 4 hr % reduction
[20] = Product Conc. 0.1 (% acid solution in water), 24 hr, read-out: Salmonella at time Interval 24 hr % reduction
[21] = Product Conc. 0.025 (% acid solution in water)
[22] = Product Conc. 0.05 (% acid solution in water)
[23] = Product Conc. 0.075 (% acid solution in water)
[24] = Product Conc. 0.1 (% acid solution in water)

| Compound | MIC at 4 HR (Salmonella typhimurium [1]; 4 hr) | MIC at 24 FIR (Salmonella typhimurium [1]) | Salmonella at time Interval 4 hr cfu/g (Salmonella typhimurium [1]; [3]) [cfu/g] | Salmonella at time Interval 24 hr cfu/g (Salmonella typhimurium [1]; [4]) [cfu/g] | Salmonella at time Interval 4 hr cfu/g (Salmonella typhimurium [1]; [5]) [cfu/g] | Salmonella at time Interval 24 hr cfu/g (Salmonella typhimurium [1]; [6]) [cfu/g] | Salmonella at time Interval 4 hr cfu/g (Salmonella typhimurium [1]; [7]) [cfu/g] | Salmonella at time Interval 24 hr cfu/g (Salmonella typhimurium [1]; [8]) [cfu/g] | Salmonella at time Interval 4 hr cfu/g (Salmonella typhimurium [1]; [9]) [cfu/g] | Salmonella at time Interval 24 hr cfu/g (Salmonella typhimurium [1]; [10]) [cfu/g] | killing at […] (Salmonella typhimurium [1]; [13]) [%] | killing at […] (Salmonella typhimurium [1]; [14]) [%] | killing at 0.05 % (Salmonella typhimurium [1]; [15]) [%] | killing at 0.05 % (Salmonella typhimurium [1]; [16]) [%] | killing at 0.075 % (Salmonella typhimurium [1]; [17]) [%] | killing at 0.075 % (Salmonella typhimurium [1]; [18]) [%] | killing at 0.1 % (Salmonella typhimurium [1]; [19]) [%] | killing at 0.1 % (Salmonella typhimurium [1]; [20]) [%] | further results |
| --- | --- | --- | --- | --- | --- | --- | --- | --- | --- | --- | --- | --- | --- | --- | --- | --- | --- | --- | --- |
| CCCCCC(=O)O [Caproic acid] | 0.103 | 0.063 | 1267 | 30 | 1433 | 7 | 523 | 0 | 27 | 0 |  |  |  |  |  |  |  |  | killing at 0.05 % (Salmonella typhimurium [1]; [11]): 10%; killing at 0.075 % (Salmonella typhimurium [1]; [11]): 67%; killing at 0.1 % (Salmonella typhimurium [1]; [11]): 98%; killing at […] (Salmonella typhimurium [1]; [11]): 21%; killing at 0.05 % (Salmonella typhimurium [1]; [12]): 100%; killing at 0.075 % (Salmonella typhimurium [1]; [12]): 100%; killing at 0.1 % (Salmonella typhimurium [1]; [12]): 100%; killing at […] (Salmonella typhimurium [1]; [12]): 98% |
| CCCCCCCCC(=O)O [Pelargonic acid/KOH, Pelargonic acid] |  |  | 7 | 0 | 0 | 0 | 0 | 0 | 0 | 0 | 100 | 100 | 100 | 100 | 100 | 100 | 100 | 100 |  |
| CCC(=O)O [Propionic pH 7, Propionic acid] |  |  |  |  |  |  |  |  |  |  |  |  |  |  |  |  |  |  | Salmonella at time Interval 4 hr % reduction (Salmonella typhimurium [2]; [21]): 0%; Salmonella at time Interval 4 hr cfu/g (Salmonella typhimurium [2]; [21]): >1505 cfu/g; Salmonella at time Interval 24 hr % reduction (Salmonella typhimurium [2]; [21]): 0%; Salmonella at time Interval 24 hr cfu/g (Salmonella typhimurium [2]; [21]): 1667 cfu/g; Salmonella at time Interval 4 hr % reduction (Salmonella typhimurium [2]; [22]): 0%; Salmonella at time Interval 4 hr cfu/g (Salmonella typhimurium [2]; [22]): 1700 cfu/g; Salmonella at time Interval 24 hr % reduction (Salmonella typhimurium [2]; [22]): 0%; Salmonella at time Interval 24 hr cfu/g (Salmonella typhimurium [2]; [22]): 1367 cfu/g; Salmonella at time Interval 4 hr % reduction (Salmonella typhimurium [2]; [23]): 0%; Salmonella at time Interval 4 hr cfu/g (Salmonella typhimurium [2]; [23]): >1505 cfu/g; Salmonella at time Interval 24 hr % reduction (Salmonella typhimurium [2]; [23]): 0%; Salmonella at time Interval 24 hr cfu/g (Salmonella typhimurium [2]; [23]): 1700 cfu/g; Salmonella at time Interval 4 hr % reduction (Salmonella typhimurium [2]; [24]): 0%; Salmonella at time Interval 4 hr cfu/g (Salmonella typhimurium [2]; [24]): 1600 cfu/g; Salmonella at time Interval 24 hr % reduction (Salmonella typhimurium [2]; [24]): 0%; Salmonella at time Interval 24 hr cfu/g (Salmonella typhimurium [2]; [24]): 1367 cfu/g |

Now from value to molecule, other results behind:

| MIC at 4 HR (Salmonella typhimurium [1]; 4 hr) | MIC at 24 FIR (Salmonella typhimurium [1]) | Compound | Salmonella at time Interval 4 hr cfu/g (Salmonella typhimurium [1]; [3]) [cfu/g] | Salmonella at time Interval 24 hr cfu/g (Salmonella typhimurium [1]; [4]) [cfu/g] | Salmonella at time Interval 4 hr cfu/g (Salmonella typhimurium [1]; [5]) [cfu/g] | Salmonella at time Interval 24 hr cfu/g (Salmonella typhimurium [1]; [6]) [cfu/g] | Salmonella at time Interval 4 hr cfu/g (Salmonella typhimurium [1]; [7]) [cfu/g] | Salmonella at time Interval 24 hr cfu/g (Salmonella typhimurium [1]; [8]) [cfu/g] | Salmonella at time Interval 4 hr cfu/g (Salmonella typhimurium [1]; [9]) [cfu/g] | Salmonella at time Interval 24 hr cfu/g (Salmonella typhimurium [1]; [10]) [cfu/g] | killing at […] (Salmonella typhimurium [1]; [13]) [%] | killing at […] (Salmonella typhimurium [1]; [14]) [%] | killing at 0.05 % (Salmonella typhimurium [1]; [15]) [%] | killing at 0.05 % (Salmonella typhimurium [1]; [16]) [%] | killing at 0.075 % (Salmonella typhimurium [1]; [17]) [%] | killing at 0.075 % (Salmonella typhimurium [1]; [18]) [%] | killing at 0.1 % (Salmonella typhimurium [1]; [19]) [%] | killing at 0.1 % (Salmonella typhimurium [1]; [20]) [%] | further results |
| --- | --- | --- | --- | --- | --- | --- | --- | --- | --- | --- | --- | --- | --- | --- | --- | --- | --- | --- | --- |
| 0.109 | 0.090 | CCCCCCCC(=O)O [Caprylic acid/KOH, Caprylic acid] | 1567 | 1400 | 1333 | 797 | 1100 | 77 | 0 | 0 | 2 | 18 | 17 | 53 | 31 | 95 | 100 | 100 |  |
| 0.072 | <0.025 | CCCCCCCCCCCC(=O)O [Lauric acid/KOH, Lauric acid] | 670 | 20 | 0 | 0 | 0 | 0 | 0 | 0 | 58 | 99 | 100 | 100 | 100 | 100 | 100 | 100 |  |
| 0.075 | 0.063 | CCCCCCC(=O)O [Oenanthic acid] | 1103 | 10 | 0 | 0 | 0 | 0 | 0 | 0 |  |  |  |  |  |  |  |  | Salmonella at time Interval 4 hr % reduction (Salmonella typhimurium [1]; [3]): 31%; Salmonella at time Interval 24 hr % reduction (Salmonella typhimurium [1]; [4]): 99%; Salmonella at time Interval 4 hr % reduction (Salmonella typhimurium [1]; [5]): 100%; Salmonella at time Interval 24 hr % reduction (Salmonella typhimurium [1]; [6]): 100%; Salmonella at time Interval 4 hr % reduction (Salmonella typhimurium [1]; [7]): 100%; Salmonella at time Interval 24 hr % reduction (Salmonella typhimurium [1]; [8]): 100%; Salmonella at time Interval 4 hr % reduction (Salmonella typhimurium [1]; [9]): 100%; Salmonella at time Interval 24 hr % reduction (Salmonella typhimurium [1]; [10]): 100% |
| 0.174 | 0.070 | CCCCC(=O)O [Valeric acid] | 1233 | 533 | 1267 | 73 | 990 | 37 | 657 | 17 | 23 | 69 | 21 | 96 | 38 | 98 | 59 | 99 |  |

Source: patent US10785975B2, “Water and feed antimicrobial preservative” (priority 2009, dated 2020)
